Results published in patent US8017612B2, “Piperazine compound and use thereof as a HCV polymerase inhibitor” (priority 2006, dated 2011).

Tests used:
[1] = biological target: T1, HCV polymerase (NS5B) type 1a (Hepatitis C virus genotype 1a, UniProt P26664); assay: Assay of enzyme (HCV polymerase) inhibitory activity, type 1a enzyme; format: biochemical, HCV type 1a (cloned from the blood of patients); conditions: HCV polymerase inhibitory activity IC50, 1a, type 1a enzyme
T1 construct: made in house; host or cells: Escherichia coli (by the 'similar method' of the 1b enzyme)
Summary of the method: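 IC50 values derive from radioactivity of newly synthesized RNA with versus without test compound. The enzyme was C-terminally truncated type 1a NS5B, 1.5 μg/ml, run 60 min at 25° C with 3H-UTP-labelled nucleotides.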

[2] = biological target: T2, HCV polymerase (NS5B) type 1b (Hepatitis C virus genotype 1b, UniProt P26663); assay: Assay of enzyme (HCV polymerase) inhibitory activity, type 1b enzyme; format: biochemical, HCV BK strain (type 1b); conditions: HCV polymerase inhibitory activity IC50, 1b, type 1b enzyme
T2 construct: a region encoding NS5B (J Virol 1991 March, 65(3), 1105-13, 544 amino acids after deletion of 47 amino acids on the C-terminal); 6xHis (C); made in house; host or cells: Escherichia coli
Summary of the method: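 Polymerase activity was followed as radiolabelled UTP incorporation by E. coli-expressed, His-tagged NS5B of HCV type 1b lacking its last 47 residues. Conditions: 2 μM UTP, 50 μM other NTPs, Mg2+ buffer at pH 7.5, 25 °C for 60 min. Inhibition relative to compound-free reactions gave IC50.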

Row | SMILES | IC50 [1] [nM] | IC50 [2] [nM]
1 | O=C(NCc1ccc(OC(F)(F)F)cc1)[C@H]1CN(c2cnc3cncc(Br)c3n2)CCN1S(=O)(=O)c1ccc(OC(F)(F)F)cc1 [Example 799, (R)-4-(8-bromo-pyrido[3,4-b]pyrazin-2-yl)-1-(4-trifluoromethoxy-benzenesulfonyl)-piperazine-2-carboxylic acid 4-trifluoromethoxy-benzylamide] | < 100 | < 100
2 | O=C(NCc1ccc(OC(F)(F)F)cc1)[C@H]1CN(c2nc3nc(Cl)nc(Cl)c3s2)CCN1S(=O)(=O)c1ccc(OC(F)(F)F)cc1 [Example 800, (R)-4-(5,7-dichloro-thiazolo[4,5-d]pyrimidin-2-yl)-1-(4-trifluoromethoxy-benzenesulfonyl)-piperazine-2-carboxylic acid 4-trifluoromethoxy-benzylamide] | < 100 | < 100
3 | O=C(NCc1ccc(OC(F)(F)F)cc1)[C@H]1CN(c2nc3ncncc3s2)CCN1S(=O)(=O)c1ccc(OC(F)(F)F)cc1 [Example 801, (R)-4-thiazolo[4,5-d]pyrimidin-2-yl-1-(4-trifluoromethoxy-benzenesulfonyl)-piperazine-2-carboxylic acid 4-trifluoromethoxy-benzylamide] | < 100 | < 100
4 | O=C(NCc1ccc(OC(F)(F)F)cc1)[C@H]1CN(c2nc3nc(Cl)ncc3s2)CCN1S(=O)(=O)c1ccc(OC(F)(F)F)cc1 [Example 802, (R)-4-(5-chloro-thiazolo[4,5-d]pyrimidin-2-yl)-1-(4-trifluoromethoxy-benzenesulfonyl)-piperazine-2-carboxylic acid 4-trifluoromethoxy-benzylamide] | < 100 | < 100
5 | O=C(NCc1ccc(OC(F)(F)F)cc1)[C@H]1CN(c2nc3c(=O)[nH][nH]c(=O)c3s2)CCN1S(=O)(=O)c1ccc(OC(F)(F)F)cc1 [Example 803, (R)-4-(4,7-dioxo-4,5,6,7-tetrahydro-thiazolo[4,5-d]pyridazin-2-yl)-1-(4-trifluoromethoxy-benzenesulfonyl)-piperazine-2-carboxylic acid 4-trifluoromethoxy-benzylamide] | < 100 | < 100
6 | O=C(NCC12CC3CC(CC(C3)C1)C2)[C@H]1CN(c2cnc3cncnc3n2)CCN1S(=O)(=O)c1ccc(OC(F)(F)F)cc1 [Example 804, (R)-4-pteridin-7-yl-1-(4-trifluoromethoxy-benzenesulfonyl)-piperazine-2-carboxylic acid (adamantan-1-ylmethyl)-amide] | > 1000 | > 1000
7 | O=C(NCc1ccc(OC(F)(F)F)cc1)[C@H]1CN(c2nc3cn[nH]c(=O)c3s2)CCN1S(=O)(=O)c1ccc(OC(F)(F)F)cc1 [Example 805, (R)-4-(7-oxo-6,7-dihydrothiazolo[4,5-d]pyridazin-2-yl)-1-(4-trifluoromethoxy-benzenesulfonyl)-piperazine-2-carboxylic acid 4-trifluoromethoxy-benzylamide] | < 100 | < 100
8 | O=C(O)c1cncc2ncc(N3CCN(S(=O)(=O)c4ccc(OC(F)(F)F)cc4)[C@@H](C(=O)NCc4ccc(OC(F)(F)F)cc4)C3)nc12 [Example 806, 2-[(R)-4-(4-trifluoromethoxy-benzenesulfonyl)-3-(4-trifluoromethoxy-benzylcarbamoyl)-piperazin-1-yl]-pyrido[3,4-b]pyrazine-8-carboxylic acid] | < 100 | < 100
9 | NC(=O)c1cncc2ncc(N3CCN(S(=O)(=O)c4ccc(OC(F)(F)F)cc4)[C@@H](C(=O)NCc4ccc(OC(F)(F)F)cc4)C3)nc12 [Example 807, 2-[(R)-4-(4-trifluoromethoxy-benzenesulfonyl)-3-(4-trifluoromethoxy-benzylcarbamoyl)-piperazin-1-yl]-pyrido[3,4-b]pyrazine-8-carboxylic acid amide] | < 100 | < 100
10 | O=C(O)CCc1cncc2ncc(N3CCN(S(=O)(=O)c4ccc(OC(F)(F)F)cc4)[C@@H](C(=O)NCc4ccc(OC(F)(F)F)cc4)C3)nc12 [Example 808, 3-{2-[(R)-4-(4-trifluoromethoxy-benzenesulfonyl)-3-(4-trifluoromethoxy-benzylcarbamoyl)-piperazin-1-yl]-pyrido[3,4-b]pyrazin-8-yl}-propionic acid] | < 100 | < 100
11 | Cc1nc(N2CCN(S(=O)(=O)c3ccc(OC(F)(F)F)cc3)[C@@H](C(=O)NCc3ccc(OC(F)(F)F)cc3)C2)cnc1C(=O)O [Example 809, (R)-6′-methyl-4-(4-trifluoromethoxy-benzenesulfonyl)-3-(4-trifluoromethoxy-benzylcarbamoyl)-3,4,5,6-tetrahydro-2H-[1,2′]bipyrazinyl-5′-carboxylic acid] | < 100 | < 100
12 | NC(=O)CCc1cncc2ncc(N3CCN(S(=O)(=O)c4ccc(OC(F)(F)F)cc4)[C@@H](C(=O)NCc4ccc(OC(F)(F)F)cc4)C3)nc12 [Example 810, (R)-4-[8-(2-carbamoyl-ethyl)-pyrido[3,4-b]pyrazin-2-yl]-1-(4-trifluoromethoxy-benzenesulfonyl)-piperazine-2-carboxylic acid 4-trifluoromethoxy-benzylamide] | < 100 | < 100
13 | O=C(NCCCc1ccccc1)[C@H]1CN(c2cnc3cncnc3n2)CCN1S(=O)(=O)c1ccc(OC(F)(F)F)cc1 [Example 811, (R)-4-pteridin-7-yl-1-(4-trifluoromethoxy-benzenesulfonyl)-piperazine-2-carboxylic acid (3-phenyl-propyl)-amide] | 100 to 1000 | 100 to 1000
14 | CCCc1ccc(CNC(=O)[C@H]2CN(c3nc4cn[nH]c(=O)c4s3)CCN2S(=O)(=O)c2ccc(CC)cc2)cc1 [Example 812, (R)-1-(4-ethyl-benzenesulfonyl)-4-(7-oxo-6,7-dihydro-thiazolo[4,5-d]pyridazin-2-yl)-piperazine-2-carboxylic acid 4-propyl-benzylamide] | < 100 | < 100
15 | CCCc1ccc(CNC(=O)[C@H]2CN(c3cnc4cncc(Br)c4n3)CCN2S(=O)(=O)c2ccc(CC)cc2)cc1 [Example 813, (R)-4-(8-bromo-pyrido[3,4-b]pyrazin-2-yl)-1-(4-ethyl-benzenesulfonyl)-piperazine-2-carboxylic acid 4-propyl-benzylamide] | < 100 | < 100
16 | CCCc1ccc(CNC(=O)[C@H]2CN(c3cnc4c(C(=O)O)cccc4n3)CCN2S(=O)(=O)c2ccc(CC)cc2)cc1 [Example 814, 2-[(R)-4-(4-ethyl-benzenesulfonyl)-3-(4-propyl-benzylcarbamoyl)-piperazin-1-yl]-quinoxaline-5-carboxylic acid] | < 100 | < 100
17 | CCCc1ccc(CNC(=O)[C@H]2CN(c3cnc4cncc(C(=O)O)c4n3)CCN2S(=O)(=O)c2ccc(CC)cc2)cc1 [Example 815, 2-[(R)-4-(4-ethyl-benzenesulfonyl)-3-(4-propyl-benzylcarbamoyl)-piperazin-1-yl]-pyrido[3,4-b]pyrazine-8-carboxylic acid] | < 100 | < 100
18 | CCCc1ccc(CNC(=O)[C@H]2CN(c3cnc4cccc(C(=O)O)c4n3)CCN2S(=O)(=O)c2ccc(CC)cc2)cc1 [Example 816, 3-[(R)-4-(4-ethyl-benzenesulfonyl)-3-(4-propyl-benzylcarbamoyl)-piperazin-1-yl]-quinoxaline-5-carboxylic acid] | < 100 | < 100
19 | CCCc1ccc(CNC(=O)[C@H]2CN(c3cnc4c(C(=O)O)cccc4n3)CCN2S(=O)(=O)c2ccc(OC(F)(F)F)cc2)cc1 [Example 817, 2-[(R)-3-(4-propyl-benzylcarbamoyl)-4-(4-trifluoromethoxy-benzenesulfonyl)-piperazin-1-yl]-quinoxaline-5-carboxylic acid] | < 100 | < 100
20 | CCCc1ccc(CNC(=O)[C@H]2CN(c3nc4c(C(=O)O)cccc4s3)CCN2S(=O)(=O)c2ccc(CC)cc2)cc1 [Example 818, 2-[(R)-4-(4-ethyl-benzenesulfonyl)-3-(4-propyl-benzylcarbamoyl)-piperazin-1-yl]-benzothiazole-4-carboxylic acid] | < 100 | < 100
21 | CCCc1ccc(CNC(=O)[C@H]2CN(c3nc4cn[nH]c(=O)c4s3)CCN2S(=O)(=O)c2ccc(OC(F)(F)F)cc2)cc1 [Example 819, (R)-4-(7-oxo-6,7-dihydro-thiazolo[4,5-d]pyridazin-2-yl)-1-(4-trifluoromethoxy-benzenesulfonyl)-piperazine-2-carboxylic acid 4-propyl-benzylamide] | < 100 | < 100
22 | CCCc1ccc(CNC(=O)[C@H]2CN(c3nc4cn[nH]c(=O)c4s3)CCN2S(=O)(=O)c2ccc(C(F)(F)F)cc2)cc1 [Example 820, (R)-4-(7-oxo-6,7-dihydro-thiazolo[4,5-d]pyridazin-2-yl)-1-(4-trifluoromethyl-benzenesulfonyl)-piperazine-2-carboxylic acid 4-propyl-benzylamide] | < 100 | < 100
23 | CCC(F)(F)c1ccc(CNC(=O)[C@H]2CN(c3nc4cn[nH]c(=O)c4s3)CCN2S(=O)(=O)c2ccc(OC(F)(F)F)cc2)cc1 [Example 821, (R)-4-(7-oxo-6,7-dihydro-thiazolo[4,5-d]pyridazin-2-yl)-1-(4-trifluoromethoxy-benzenesulfonyl)-piperazine-2-carboxylic acid 4-(1,1-difluoro-propyl)-benzylamide] | < 100 | < 100
